Reference: US11130743B2, “Heterocyclic ligands of PAR1 and methods of use” (Marquette University, priority 2019, dated 2021)
Values after ≈ are worked out from the molar mass of the structure shown.

Key:
PAR1 [1] = target: T1, PAR1 (Homo sapiens, UniProt P25116); assay: PAR1 (TFLLRN-NH2)-driven intracellular calcium mobilization (iCa2+) assay with Ea.hy926 cells; type: cell-based; conditions: for iCa2+ assay pIC50 / IC50: 5 μM TFLLRN-NH2, EA.hy926 cells, curves fitted to 3 wells per concentration; for inhibition at 10 µM: EA.hy 926, 10 μM compound, 5 μM TFLLRN-NH2, adherent EA.hy926 endothelial cells, n=4 wells, ± SEM, read-out: iCa2+ assay % Inhib; for IC50: read-out: iCa2+ assay pIC50 (converted)
T1 construct: endogenous in cells; host or cells: EA.hy926 endothelial cells
T1 sequence (P25116 22-425): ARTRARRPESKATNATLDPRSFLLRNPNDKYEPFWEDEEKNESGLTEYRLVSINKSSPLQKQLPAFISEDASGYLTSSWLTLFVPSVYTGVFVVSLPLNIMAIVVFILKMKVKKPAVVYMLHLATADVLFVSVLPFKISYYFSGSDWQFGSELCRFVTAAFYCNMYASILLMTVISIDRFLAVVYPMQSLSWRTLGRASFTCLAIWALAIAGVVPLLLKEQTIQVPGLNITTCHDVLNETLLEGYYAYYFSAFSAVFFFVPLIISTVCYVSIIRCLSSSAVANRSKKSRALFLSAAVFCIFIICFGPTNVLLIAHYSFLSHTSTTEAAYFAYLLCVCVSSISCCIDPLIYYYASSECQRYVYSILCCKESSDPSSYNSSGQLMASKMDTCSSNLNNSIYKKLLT
Procedure: FIGS. 1A-1D depicts concentration-response curves for PAR1 antagonists in the TFLLRN-NH2-mediated (5 μM) intracellular calcium mobilization (iCa^2+) assay with Ea.hy926 cells: A) 35 (VAK-7), B) 39 (NRD-23), C) 9 (NRD-25), D) 38 (NRD-21). Cells were loaded with the calcium-binding dye Fluo-4/AM, and changes in calcium concentration were measured with a plate reader.
Our interest in measuring the effects of parmodulins in endothelial cells led us to develop a protocol for an […] calcium mobilization (iCa^2+) assay using adherent Ea.hy926 cells in 96 well plates.^24 This assay also offers higher throughput and lower variability than the platelet P-selectin assay, so we have utilized it as our primary assay for our ongoing studies. Compounds were screened in 96 well plates at a concentration of 10 μM, using the PAR1 tethered ligand peptide TFLLRN (5 μM) as agonist.
The intracellular calcium mobilization assay was performed with Ea.hy926 cells according to our published protocol (Bioorg. Med. Chem. 2018, 9, 2514-2529), using TFLLRN-NH2 as PAR1 agonist.
^aAssays were performed with adherent EA.hy926 endothelial cells. % Inhibition was measured at 10 μM with 5 μM TFLLRN-NH2 and n=4 wells, unless otherwise noted, with standard error of the mean (SEM) provided. pIC50s (-logIC50S) were estimated from curves fitted to measurements on 3 separate wells for each concentration, using 4-variable non-linear regression in GraphPad Prism v.6.

[2] = target: T2, peripheral benzodiazepine receptor (PBR) (Rattus norvegicus, UniProt P16257); assay: PDSP off-target radioligand binding, PBR; conditions: PDSP profiling
T2 construct: Psychoactive Drug Screening Program (PDSP)

[3] = test system: tissue factor (TF) expression; assay: qPCR assay of TNF-α induced tissue factor (TF) expression in HUVEC; type: cell-based, human; conditions: 10 μM inhibitor, TNF-α 25 ng/mL, mRNA at 4 h
Procedure: FIG. 6 is a graph depicting results of a qPCR assay (n=3) measuring the inhibition of TNF-α (25 ng/mL) induced tissue factor (TF) expression in HUVEC after treatment with ML161 and NRD-21 (10 μM). Inhibitors were added at t=0, TNF-α was added at t=1 h, and mRNA was measured at t=4 h.
To this end, we performed a qPCR assay measuring the expression of tissue factor (TF) in endothelial cells (HUVEC) in response to the inflammatory cytokine Tumor Necrosis Factor-alpha (TNF-α). TF has been long established to mediate the pro-inflammatory and pro-coagulant effects^27 of TNF-α^28,29 and endotoxins,^30 and unnatural TF expression is therefore the driver of disseminated intravascular coagulation (DIC) observed under conditions of cancer or sepsis.^31 We measured the level of TF mRNA 4 h after treatment with ML161 or NRD-21 followed by the addition of TNF-α (FIG. 6).

human plasma stability = type: in vitro ADME; conditions: after 4 h in human plasma
Text: FIG. 8. Human plasma stability of ML161 (left) and NRD-21 (right). Points indicate the natural logarithm of the average concentration of compound remaining, with 3 replicates at each time point.

hepG2 = assay: toxicity in a human cell line (hepG2); type: cell-based
[4] = stability in human liver microsomes; type: in vitro ADME; conditions: 1 h
[5] = target: T3, serotonin transporter (SERT) (Homo sapiens, UniProt P31645); assay: PDSP off-target radioligand binding, SERT
T3 construct: Psychoactive Drug Screening Program (PDSP)

[6] = kinetic aqueous solubility assay; type: physicochemical; conditions: aqueous solution with 2.5% DMSO
human washed platelets = assay: human platelet aggregation assay with PAR1/2 agonist SFLLRN-NH2; type: cell-based; conditions: parmodulins at 10 μM, SFLLRN-NH2 (5 μM)
Procedure: FIGS. 5A-5B depicts results of a human platelet aggregation assay of A) ML161 (10 μM, red trace) and B) NRD-21 (10 μM, red trace) in the presence of the PAR1/2 agonist SFLLRN-NH2 ([…]). Blue traces=DMSO.
Next, an assay was performed to measure the ability of NRD-21 to inhibit platelet aggregation. PAR1 is highly expressed in platelets, and its activation leads to aggregation and coagulation. The platelet aggregation assay was performed with ML161 and NRD-21. In both cases, human washed platelets were incubated with parmodulins at 10 μM, then the PAR1/2 agonist SFLLRN-NH2 (5 μM) was added. (FIG. 5).

mouse plasma stability = type: in vitro ADME; conditions: after 4 h in mouse plasma
Procedure: The term “plasma stability” as used herein refers to the ability of the compound to remain intact after incubation with plasma, for example, mouse plasma or human plasma, after a certain period of time. For example, the compounds of the present invention (e.g., compounds of formula I) have a greater half-life for plasma stability than prior compounds (for example, greater half-life stability than ML161). Methods of determining the plasma stability of the compounds are known in the art. For example, one can measure the amount of compound remaining by HPLC after a 4 h incubation in plasma, or if multiple time points are taken, a half-life for plasma stability can be calculated. As described in the Examples and Table 5, the % compound remaining after 4 h-incubation in mouse plasma is substantially better than the compounds of the prior art (e.g., ML161). For example, increased plasma stability can be at least 20% of the compound remains after 4 hour incubation in plasma, alternatively at least 30% of the compound remains after 4 hour incubation in plasma.
We measured its stability and a number of parameters relevant to its use as an in vivo probe (Table 5, FIG. 7). Importantly, NRD-21 is much more plasma stable than ML161. After 4 h in mouse plasma, 32% of NRD-21 remained, while ML161 was less than 1%.

[7] = species not stated in b8; mouse plasma; reference 20; cited from earlier work
PAR1 [8] = target: T1, PAR1; conditions: from reference 24; cited from earlier work
[9] = test system: necrosis of coronary tissue; conditions: mouse MI model, reference 23; cited from earlier work

T3 sequence (P31645 whole entry, species assumed): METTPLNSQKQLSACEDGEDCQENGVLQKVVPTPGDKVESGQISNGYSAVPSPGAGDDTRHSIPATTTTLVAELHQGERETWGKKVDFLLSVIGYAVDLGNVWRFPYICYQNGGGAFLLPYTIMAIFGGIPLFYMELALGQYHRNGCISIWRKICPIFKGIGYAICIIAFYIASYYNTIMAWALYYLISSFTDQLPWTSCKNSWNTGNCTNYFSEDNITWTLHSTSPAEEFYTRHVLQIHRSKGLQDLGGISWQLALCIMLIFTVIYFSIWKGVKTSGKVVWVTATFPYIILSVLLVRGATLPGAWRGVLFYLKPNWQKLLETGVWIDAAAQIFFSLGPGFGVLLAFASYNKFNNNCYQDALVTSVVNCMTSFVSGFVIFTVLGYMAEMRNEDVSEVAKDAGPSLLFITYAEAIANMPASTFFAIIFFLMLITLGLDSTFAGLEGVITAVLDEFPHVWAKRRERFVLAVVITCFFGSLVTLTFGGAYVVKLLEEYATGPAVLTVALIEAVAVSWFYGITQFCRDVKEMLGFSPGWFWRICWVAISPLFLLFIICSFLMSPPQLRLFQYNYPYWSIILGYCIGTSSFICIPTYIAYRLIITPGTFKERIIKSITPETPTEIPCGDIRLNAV

O=C(Nc1cccc(NC(=O)c2ccccc2Br)c1)c1cnco1 [Compound 5, N-[3-(2-bromobenzamido)phenyl]-1,3-oxazole-5-carboxamide]
mode of action at PAR1 (PAR1 [1]): selective negative allosteric modulator of PAR1 | iCa2+ assay pIC50 (PAR1 [1]): 6.3 ± 0.1 | inhibition at 10 µM (PAR1 [1]): 59 ± 13% | effect on radioligand binding to PBR [2]: inhibition of binding | TF mRNA level after TNF-α [3]: dropping TF RNA levels to below baseline levels | % compound remaining in human plasma (human plasma stability): 97% | toxicity in hepG2 (hepG2): no measurable toxicity | stability in the presence of human liver microsomes [4]: no apparent degradation after 1 h | effect on SERT in radioligand binding profiling [5]: activation | solubility [6]: 17 µM (≈ 6.57 µg/mL) | inhibition of platelet aggregation (human washed platelets): Complete inhibition of platelet aggregation | % compound remaining in mouse plasma (mouse plasma stability): 32%

O=C(Nc1cccc(NC(=O)c2ccccc2Br)c1)c1cocn1 [Compound 6, N-[3-(2-bromobenzamido)phenyl]-1,3-oxazole-4-carboxamide]
iCa2+ assay pIC50 (PAR1 [1]): 6.4 ± 0.1 | inhibition at 10 µM (PAR1 [1]): 82 ± 1%

O=C(Nc1cccc(NC(=O)c2ccccc2Cl)c1)c1cnco1 [Compound 7, N-[3-(2-chlorobenzamido)phenyl]-1,3-oxazole-5-carboxamide]
IC50 (PAR1 [1]): 0.398 µM | inhibition at 10 µM (PAR1 [1]): 66 ± 13%

O=C(Nc1cccc(NC(=O)c2ccccc2Br)c1)c1cncs1 [Compound 8, N-[3-(2-bromobenzamido)phenyl]-1,3-thiazole-5-carboxamide]
IC50 (PAR1 [1]): 0.0933 µM | inhibition at 10 µM (PAR1 [1]): 56 ± 6%

O=C(Nc1cccc(NC(=O)c2ccccc2Br)c1)c1ccoc1 [Compound 9, N-[3-(2-bromobenzamido)phenyl]furan-3-carboxamide]
IC50 (PAR1 [1]): 0.0407 µM | inhibition at 10 µM (PAR1 [1]): 97 ± 13%

O=C(Nc1cccc(NC(=O)C2CCCO2)c1)c1ccccc1Br (centres unmarked) [Compound 10, N-[3-(2-bromobenzamido)phenyl]oxolane-2-carboxamide]
inhibition at 10 µM (PAR1 [1]): 42 ± 3%

O=C(Nc1cccc(NC(=O)C2CCOC2)c1)c1ccccc1Br (centres unmarked) [Compound 11, N-[3-(2-bromobenzamido)phenyl]oxolane-3-carboxamide]
inhibition at 10 µM (PAR1 [1]): 44 ± 2%

CCCC(=O)Nc1cccc(NC(=O)c2ccccc2Br)c1 [ML161, reference compound]
stability in plasma [7]: low stability in plasma | mode of action at PAR1 signaling via Gq (PAR1 [8]): selective, reversible, and allosteric inhibitors (negative allosteric modulators) | effect on radioligand binding to PBR [2]: inhibition of binding | TF mRNA level after TNF-α [3]: blocked the ˜3-fold increase in TF expression | % compound remaining in human plasma (human plasma stability): 79% | stability in the presence of human liver microsomes [4]: excellent stability | effect on SERT in radioligand binding profiling [5]: activation | minimizing necrosis of coronary tissue [9]: highly effective at minimizing necrosis of coronary tissue | inhibition of platelet aggregation (human washed platelets): Complete inhibition of platelet aggregation | % compound remaining in mouse plasma (mouse plasma stability): less than 1%
